Measured values taken from US20050239832A1, “Methods of treatment of amyloidosis using bi-cyclic aspartyl protease inhibitors” (priority 2004, published 2005).

Legend:
A-beta = assay: Efficacy of compounds to inhibit A-beta concentration (% inhibition vs vehicle control); assay type: in vivo, rat
Description: Efficacious compounds of the present invention are those able to decrease the amount of A-beta produced compared to a control, where beta-secretase mediated cleavage is observed and measured in the absence of the compounds. Detection of efficacy can be by analysis of A-beta levels, for example, by immunoassay, fluorometric or chromogenic assay, HPLC, or other means of detection. The efficacy of the compounds of formula (I) was determined as a percentage inhibition corresponding to A-beta concentrations for tissue treated and untreated with a compound of formula (I).
The invention encompasses compounds of formula (I) that are efficacious. Efficacy is calculated as a percentage of concentrations as follows: Efficacy=(1−(total A-beta in dose group/total A-beta in vehicle control))*100% wherein the “total A-beta in dose group” equals the concentration of A-beta in the tissue, (e.g., rat brain) treated with the compound, and the “total A-beta in vehicle control” equals the concentration of A-beta in the tissue, yielding a % inhibition of A-beta production. Statistical significance is determined by p-value<0.05 using the Mann Whitney t-test. See, for example, Dovey et al., J. Neurochemistry, 2001, 76:173-181. […]

BACE = BACE (Homo sapiens, UniProt P56817); assay: BACE EC50 (enzyme inhibition, Table on oral bioavailability); assay type: biochemical
Sequence of BACE (P56817 46-501): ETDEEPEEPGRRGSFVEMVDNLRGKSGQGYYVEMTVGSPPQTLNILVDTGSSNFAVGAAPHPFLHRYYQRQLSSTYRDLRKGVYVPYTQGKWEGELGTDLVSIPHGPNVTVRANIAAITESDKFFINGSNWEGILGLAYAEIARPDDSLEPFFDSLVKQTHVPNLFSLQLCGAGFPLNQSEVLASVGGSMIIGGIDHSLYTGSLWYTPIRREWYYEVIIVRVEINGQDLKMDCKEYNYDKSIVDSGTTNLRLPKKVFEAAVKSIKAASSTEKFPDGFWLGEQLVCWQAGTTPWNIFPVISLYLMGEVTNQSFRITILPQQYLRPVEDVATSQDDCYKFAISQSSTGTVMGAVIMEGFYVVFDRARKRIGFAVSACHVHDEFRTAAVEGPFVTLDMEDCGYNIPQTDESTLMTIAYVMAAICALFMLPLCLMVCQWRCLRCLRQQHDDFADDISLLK

[1] = test system: HEKp293 cells transfected with APP751 containing the Swedish mutation (A-beta); assay: cells; assay type: cell-based; details: Homo sapiens, read-out: Cell EC50 (nM)
Description: An exemplary assay for the analysis of inhibition of beta-secretase activity utilizes the human embryonic kidney cell line HEKp293 (ATCC Accession No. CRL-1573) transfected with APP751 containing the naturally occurring double mutation Lys651Met652 to Asn651Leu652 (numbered for APP751), commonly called the Swedish mutation and shown to overproduce A-beta (Citron et al., 1992, Nature, 360:672-674), as described in U.S. Pat. No. 5,604,102.
At the end of the treatment period, conditioned media is analyzed for beta-secretase activity, for example, by analysis of cleavage fragments. A-beta can be analyzed by immunoassay, using specific detection antibodies.

[2] = Oral bioavailability in the male Sprague-Dawley rat (IV and PO); assay type: in vivo; details: plasma, 10 mg/kg
Description: The invention encompasses compounds of formula (I) that are orally bioavailable. Generally, oral bioavailability is defined as the fraction of orally administered dose reaching systemic circulation. Oral bioavailability can be determined following both an intravenous (IV) and oral (PO) administration of a test compound.
Oral bioavailability was determined in the male Sprague-Dawley rat following both IV and PO administration of test compound. Two month-old male rats (250-300 g) were surgically implanted with polyethylene (PE-50) cannula in the jugular vein while under isoflurane anesthesia the day before the in-life phase. Animals were fasted overnight with water ad libitum, then dosed the next day. The dosing regime. consisted of either a 5 mg/kg (2.5 mL/kg) IV dose (N=3) administered to the jugular vein cannula, then flushed with saline, or a 10 mg/kg (5 mL/kg) PO dose (N=3) by esophageal gavage. Compounds were formulated with 10% Solutol in 5% dextrose at 2 mg/mL. Subsequent to dosing, blood was collected at 0.016 (IV only), 0.083, 0.25, 0.5, 1, 3, 6, 9, and 24 h post administration, and heparinized plasma was recovered following centrifugation.
Compounds were extracted from samples following precipitation of the plasma proteins by methanol. The resulting supernatants were evaporated to dryness and reconstituted with chromatographic mobile phase (35% acetonitrile in 0.1% formic acid) and injected onto a reverse phase C18 column (2×50 mm, 5 μm, BDS Hypersil). Detection was facilitated with a multi-reaction-monitoring experiment on a tandem triple quadrupole mass spectrometer (LC/MS/MS) following electrospray ionization. Experimental samples were compared to calibration curves prepared in parallel with aged match rat plasma and quantitated with a weighted 1/x linear regression. The lower limit of quantization (LOQ) for the assay was typically 0.5 ng/mL.
Oral bioavailability (% F) is calculated from the dose normalized ratio of plasma exposure following oral administration to the intravenous plasma exposure in the rat by the following equation % F=(AUCpo/AUCiv)×(Div/Dpo)×100% where D is the dose and AUC is the area-under-the-plasma-concentration-time-curve from 0 to 24 h. AUC is calculated from the linear trapezoidal rule by AUC=((C2+C1)/2)×(T2−T1) where C is concentration and T is time.
Pharmacokinetic parameters were calculated by a non-compartmental approach. See, for example, Gibaldi, M. and Perrier, D., Pharmacokinetics, Second Edition, 1982, Marcel Dekker Inc., New York, N.Y., pp 409-418.

[3] = test system: catD versus beta-secretase (BACE); assay: Selectivity for inhibiting BACE over aspartyl protease catD (ratio of IC50 values); assay type: biochemical; details: average of four experimental runs
Description: Investigation of potential beta-secretase inhibitors produced compounds with increased selectivity for beta-secretase over other aspartyl proteases such as cathepsin D (catD), cathepsin E (catE), HIV protease, and renin. Selectivity was calculated as a ratio of inhibition (IC50) values in which the inhibition of beta-secretase was compared to the inhibition of other aspartyl proteases. […] Alternatively, a compound is selective when its binding affinity is greater for its desired target (e.g., beta-secretase) versus a secondary target (e.g., catD). Accordingly, methods of treatment include administering selective compounds of formula (I) having a lower IC50 value for inhibiting beta-secretase, or greater binding affinity for beta-secretase, than for other aspartyl proteases such as catD, catE, HIV protease, or renin. A selective compound is also capable of producing a higher ratio of desired effects to adverse effects, resulting in a safer method of treatment.
The compounds of formula (I) can be selective for beta-secretase versus catD. […] Selectivity is reported as the ratio of IC50(catD):IC50(BACE).
In the following examples, each value is an average of four experimental runs and multiple values for one compound indicate that more than one experiment was conducted.

in vivo = details: CF-1, mouse, iv
Description: The following assay was employed to determine the brain penetration of compounds encompassed by the present invention.
In-life phase: Test compounds were administered to CF-1 (20-30 g) mice at 10 μmol/kg (4 to 7 mg/kg) following IV administration in the tail vein. Two time-points, 5 and 60 min, were collected post dose. Four mice were harvested for heparinized plasma and non-perfused brains at each time-point for a total of 8 mice per compound.
Analytical phase: Samples were extracted and evaporated to dryness, then reconstituted and injected onto a reverse phase chromatographic column while monitoring the effluent with a triple quadrupole mass spectrometer. Quantitation was then performed with a 1/x^2 weighted fit of the least-squares regression from calibration standards prepared in parallel with the in vivo samples. The LOQ is generally 1 ng/mL and 0.5 ng/g for the plasma and brain respectively. Data was reported in micromolar (μM) units. Brain levels were corrected for plasma volumes (16 μL/g).

[4] = 100 mg/kg, cortex, inhibition of total A-beta vs vehicle control
[5] = 100 mg/kg, plasma, inhibition of total A-beta vs vehicle control

Row | Structure (SMILES) | Efficacy (% Inhibition, 100 mg/kg) cortex (A-beta; [4]) [%] | Efficacy (% Inhibition, 100 mg/kg) plasma (A-beta; [5]) [%] | EC50 (BACE) [nM] | bioavailability [2] [%] | also measured
1 | CCc1cc(CC(C)(C)C)cc2c1CCCC2NCC(O)C(Cc1cc(F)cc(F)c1)NC(C)=O (single isomer, unassigned) [91.2 Diastereomer A] | 44 | 57 | – | – | –
2 | CC(=O)NC(Cc1cc(F)cc(F)c1)C(O)CNC1CCNc2ccc(CC(C)(C)C)cc21 (single isomer, unassigned) [91.4 Diastereomer B] | 18 | 59 | – | – | –
3 | CCc1ccc2c(c1)C(NCC(O)C(Cc1cc(F)cc(F)c1)NC(C)=O)CCC2 (single isomer, unassigned) [91.5 Diastereomer A] | 35 | 44 | – | – | –
4 | CCc1cc(CC(C)(C)C)cc2c1CCCC2NCC(O)C(Cc1cc(F)cc(F)c1)NC(C)=O (single isomer, unassigned) [91.8 Diastereomer A] | – | – | 12 | 23.3 | EC50 [1]: 32 nM
5 | CC(=O)NC(Cc1cc(F)cc(F)c1)C(O)CNC1CCNc2ccc(CC(C)(C)C)cc21 (single isomer, unassigned) [91.10 Diastereomer B] | – | – | 190 | 5 | EC50 [1]: 13 nM
6 | CC(=O)NC(Cc1cc(F)cc(F)c1)C(O)CNC1CCCc2ccc(CC(C)(C)C)cc21 (stereo not drawn) [Example 91.1, N-{1-(3,5-Difluoro-benzyl)-3-[7-(2,2-dimethyl-propyl)-1,2,3,4-tetrahydro-naphthalen-1-ylamino]-2-hydroxy-propyl}-acetamide] | – | – | 9 | 15 | Efficacy (% Inhibition, 100 mg/kg) cortex (A-beta; rat, in vivo): 47%; Efficacy (% Inhibition, 100 mg/kg) plasma (A-beta; rat, in vivo): 63%
7 | CC(C)(C)Cc1ccc2c(c1)C(NCC(O)C(Cc1cc(F)cc(F)c1)NC(=O)CF)CCC2 (stereo not drawn) [Example 91.3, N-{1-(3,5-Difluoro-benzyl)-3-[7-(2,2-dimethyl-propyl)-1,2,3,4-tetrahydro-naphthalen-1-ylamino]-2-hydroxy-propyl}-2-fluoro-acetamide] | 14 | 23 | – | – | –
8 | CC(=O)NC(Cc1cc(F)cc(F)c1)C(O)CNC1c2cc(CC(C)(C)C)ccc2CCC1CO (stereo not drawn) [Example 91.6, N-{1-(3,5-Difluoro-benzyl)-3-[7-(2,2-dimethyl-propyl)-2-hydroxymethyl-1,2,3,4-tetrahydro-naphthalen-1-ylamino]-2-hydroxy-propyl}-acetamide] | – | – | – | – | Selectivity IC50 catD/ IC50 BACE [3]: 4.4
9 | CCc1ccc2c(c1)C(NCC(O)C(Cc1cc(F)cc(F)c1)NC(C)=O)CCN2 (stereo not drawn) [Example 91.7, N-[1-(3,5-Difluoro-benzyl)-3-(6-ethyl-1,2,3,4-tetrahydro-quinolin-4-ylamino)-2-hydroxy-propyl]-acetamide] | – | – | – | – | Selectivity IC50 catD/ IC50 BACE [3]: 2.1
10 | CCc1ccc2c(c1)C(NCC(O)C(Cc1cc(F)cc(F)c1)NC(C)=O)CCC2 (stereo not drawn) [Example 91.11, N-[1-(3,5-Difluoro-benzyl)-3-(7-ethyl-1,2,3,4-tetrahydro-naphthalen-1-ylamino)-2-hydroxy-propyl]-acetamide] | – | – | 210 | 14.3 | –
11 | CC(C)(C)NC(=O)[C@@H]1CN(Cc2cccnc2)CCN1C[C@@H](O)C[C@@H](Cc1ccccc1)C(=O)N[C@H]1c2ccccc2C[C@H]1O [Indinavir] | – | – | – | – | concentration at 5 min (in vivo): 165 nM; concentration at 60 min (in vivo): 11 nM
